Measurements published in patent US8853412B2, “Pyrrolidinone derivatives as GPR119 modulators for the treatment of diabetes, obesity, dyslipidemia and related disorders” (Sanofi, priority 2012, dated 2014).

Molecular target: T1, human GPR119 (Homo sapiens, UniProt Q8TDV5)
T1 construct: expressed in transfected cells; host or cells: HEK-293 cell line stably expressing recombinant GPR119
T1 sequence (Q8TDV5 1-335): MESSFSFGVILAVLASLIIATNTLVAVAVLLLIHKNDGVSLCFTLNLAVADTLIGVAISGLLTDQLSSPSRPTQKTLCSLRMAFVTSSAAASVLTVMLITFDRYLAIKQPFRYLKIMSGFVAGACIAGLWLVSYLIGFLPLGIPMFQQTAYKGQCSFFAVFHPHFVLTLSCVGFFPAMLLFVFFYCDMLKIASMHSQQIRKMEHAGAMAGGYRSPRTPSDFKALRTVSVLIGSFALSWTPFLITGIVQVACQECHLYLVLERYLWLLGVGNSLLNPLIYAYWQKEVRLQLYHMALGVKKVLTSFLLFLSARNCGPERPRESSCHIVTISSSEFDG
Assay: Functional cellular assay measuring GPR119-mediated cAMP release (HTRF), HEK-293 cells stably expressing recombinant GPR119
Assay type: cell-based
Details: cell line expressing human GPR119; cAMP response, 30 minutes at room temperature
Experimental: Functional Cellular Assays Measuring GPR119-Mediated cAMP Release.
Compounds of the invention, which are agonists of GPR119, were characterized by functional assays measuring the cAMP response of HEK-293 cell lines stably expressing recombinant GPR119 from man, mouse or rat, or by using a hamster cell line HIT-T15 expressing GPR119 endogenously. The cAMP content was determined using a kit based on homogenous time-resolved fluorescence (HTRF) from Cisbio Corp. (cat. no. 62AM4PEC). For preparation, cells were split into T175 culture flasks and grown to near confluency in medium (DMEM/10% FCS for HEK-293 cells, and F-12K medium/10% horse serum/2.5% FCS for HIT-T15 cells, respectively). Medium was then removed and cells washed with PBS lacking calcium and magnesium ions, followed by proteinase treatment with accutase (Sigma-Aldrich, cat. no. A6964). Detached cells were washed and resuspended in assay buffer (1×HBSS; 20 mM HEPES, 0.1% BSA, 2 mM IBMX) and cellular density determined. They were then diluted to 400000 cells/mL and 25 μL-aliquots dispensed to the wells of 96-well plates. For measurement, 25 μL of test compound in assay buffer was added and incubated for 30 minutes at room temperature. After addition of HTRF reagents diluted in lysis buffer, the plates were incubated for 1 hour, followed by measuring the fluorescence ratio at 665 vs. 620 nm. Potency of the agonists was quantified by determining the concentrations that caused 50% of the maximal response/activation (EC50). See Table 10 for exemplary data obtained using the cell line expressing human GPR119.

Structure (SMILES) | EC50
O=C1CCc2c(F)cc(N3CC[C@@H](Oc4ccc(OCC(F)(F)F)nc4)C3=O)cc21 [Example 2-77] | 44 nM
CCCOc1ccc(O[C@@H]2CCN(c3cc(F)c4c(c3)C(=O)CC4)C2=O)cn1 [Example 2-18] | 5 nM
O=C1CCc2c(F)cc(N3CC[C@@H](Oc4ccc(OCc5ccccc5)nc4)C3=O)cc21 [Example 1-17] | 39 nM
N#Cc1cc(O[C@@H]2CCN(c3cc(F)c4c(c3)C(=O)CC4)C2=O)cnc1OCC1CC1 [Example 8-05] | 242 nM
O=C1CCc2c(F)cc(N3CC[C@@H](Oc4ccnc(OCC(F)(F)F)c4)C3=O)cc21 [Example 5-07] | 30 nM
CCOC(=O)COc1ccc(O[C@@H]2CCN(c3cc(F)c4c(c3)C(=O)CC4)C2=O)cn1 [Example 2-43] | 62 nM
CC(C)COc1ccc(O[C@@H]2CCN(c3cc(F)c4c(c3)C(=O)CC4)C2=O)cn1 [Example 2-23] | 7 nM
Cn1cc(COc2ccc(O[C@@H]3CCN(c4cc(F)c5c(c4)C(=O)CC5)C3=O)cn2)cn1 [Example 2-71] | 2500 nM
CC(C)Oc1cc(O[C@@H]2CCN(c3cc(F)c4c(c3)C(=O)CC4)C2=O)ccn1 [Example 5-08] | 72 nM
O=C1CCc2ccc(N3CC[C@@H](Oc4ccc(OCC5CC5)nc4)C3=O)cc21 [Example 1-12] | 327 nM
O=C1CCc2c(F)cc(N3CC[C@@H](Oc4ccc(OCC5CC5)[n+]([O-])c4)C3=O)cc21 [Example 7-01] | 5590 nM
O=C1CCc2c(F)cc(N3CC[C@@H](Oc4ccc(OC5CC5)nc4)C3=O)c(F)c21 [Example 9-02] | 69 nM
O=C1CCc2c(F)cc(N3CC[C@@H](Oc4ccc(OCC5COCO5)nc4)C3=O)cc21 (stereo partly shown) [Example 2-32] | 103 nM
O=C1CCc2ccc(N3CC[C@@H](Oc4ccc(OC5CC5)nc4)C3=O)cc21 [Example 1-20] | 87 nM
O=C1CCc2c(F)cc(N3CC[C@@H](Oc4ccc(Oc5ccc(F)cc5)cc4)C3=O)cc21 [Example 1-03] | 33 nM
COC(C)CCOc1ccc(O[C@@H]2CCN(c3cc(F)c4c(c3)C(=O)CC4)C2=O)cn1 (stereo partly shown) [Example 2-33] | 71 nM
COc1ccc(O[C@@H]2CCN(c3cc(F)c4c(c3)C(=O)CC4)C2=O)cn1 [Example 2-01] | 223 nM
O=C1CCc2c(F)cc(N3CC[C@@H](Oc4cnc(OCC5CC5)c(F)c4)C3=O)cc21 [Example 3-09] | 12 nM
Cc1c(N2CC[C@@H](Oc3ccc(OCC4CC4)nc3)C2=O)cc(F)c2c1C(=O)CC2 [Example 1-19] | 692 nM
